Molecules are shown by their SMILES. pIC50: −log10 of the molar value.

Experimental findings from ChEMBL document CHEMBL4334421, “Design, synthesis and biological evaluation of β-peptoid-capped HDAC inhibitors with anti-neuroblastoma and anti-glioblastoma activity” (Medchemcomm, 2019) are described below.

Test [1] addresses Histone deacetylase 1 (Homo sapiens, UniProt Q13547). The test can be described thus: Inhibition of recombinant full length C-terminal FLAG/His-tagged human HDAC1 expressed in baculovirus infected Sf9 cells using Z-Lys(Ac)-AMC as substrate incubated for 90 mins followed by trypsin addition and measured after 30 mins by fluorescence based assay.
In test [2] the target is T1, Protein deacetylase HDAC6 (Homo sapiens, UniProt Q9UBN7).
T1 sequence (Q9UBN7 whole entry): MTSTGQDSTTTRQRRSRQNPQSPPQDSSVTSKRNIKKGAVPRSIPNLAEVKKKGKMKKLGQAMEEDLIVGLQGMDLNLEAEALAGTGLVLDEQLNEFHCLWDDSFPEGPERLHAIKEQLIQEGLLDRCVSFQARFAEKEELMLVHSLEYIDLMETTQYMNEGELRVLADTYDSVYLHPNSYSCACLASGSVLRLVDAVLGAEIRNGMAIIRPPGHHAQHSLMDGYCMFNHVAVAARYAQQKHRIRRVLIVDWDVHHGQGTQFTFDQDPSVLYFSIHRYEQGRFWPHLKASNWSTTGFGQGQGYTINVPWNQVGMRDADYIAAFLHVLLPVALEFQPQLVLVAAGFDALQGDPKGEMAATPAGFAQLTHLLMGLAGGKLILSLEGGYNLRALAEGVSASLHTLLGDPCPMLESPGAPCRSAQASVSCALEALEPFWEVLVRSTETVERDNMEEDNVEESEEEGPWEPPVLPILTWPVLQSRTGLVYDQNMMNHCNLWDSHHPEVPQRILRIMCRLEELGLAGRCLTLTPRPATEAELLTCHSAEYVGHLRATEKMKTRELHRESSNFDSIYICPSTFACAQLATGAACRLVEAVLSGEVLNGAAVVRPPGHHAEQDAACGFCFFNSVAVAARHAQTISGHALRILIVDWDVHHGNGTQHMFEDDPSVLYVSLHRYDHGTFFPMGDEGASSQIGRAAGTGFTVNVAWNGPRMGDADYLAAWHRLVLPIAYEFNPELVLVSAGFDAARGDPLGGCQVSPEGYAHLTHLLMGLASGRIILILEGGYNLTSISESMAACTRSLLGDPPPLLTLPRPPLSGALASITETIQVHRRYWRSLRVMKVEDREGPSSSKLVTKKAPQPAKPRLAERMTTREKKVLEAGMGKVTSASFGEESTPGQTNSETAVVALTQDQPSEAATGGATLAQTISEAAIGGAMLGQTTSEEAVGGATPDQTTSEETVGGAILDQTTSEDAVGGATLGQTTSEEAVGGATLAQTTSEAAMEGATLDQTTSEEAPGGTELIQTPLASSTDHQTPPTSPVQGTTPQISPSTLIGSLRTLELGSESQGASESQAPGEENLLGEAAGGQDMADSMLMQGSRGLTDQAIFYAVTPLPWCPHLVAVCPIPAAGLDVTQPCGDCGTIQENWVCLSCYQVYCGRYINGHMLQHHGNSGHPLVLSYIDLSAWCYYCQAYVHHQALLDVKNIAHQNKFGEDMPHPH
As to the kind of experiment: Inhibition of recombinant full length N-terminal GST-tagged human HDAC6 expressed in baculovirus infected Sf9 cells using Z-Lys(Ac)-AMC as substrate incubated for 90 mins followed by trypsin addition and measured after 30 mins by fluorescence based assay.

Test [3] has as its system CHP-134. As to the kind of experiment: Antiproliferative activity against human CHP134 cells assessed as reduction in cell viability incubated for 72 hrs by cell-titer Glo assay. Type of test: functional, cell-based. The note with it: CHP-134, 72 h.
The test system of test [4] is IMR-32. The test can be described thus: Antiproliferative activity against human IMR32 cells assessed as reduction in cell viability incubated for 72 hrs by cell-titer Glo assay. The test is classed as functional, cell-based. The note with it: IMR-32, 72 h.
The test system of test [5] is SK-N-AS. As to the kind of experiment: Antiproliferative activity against human SK-N-AS cells assessed as reduction in cell viability incubated for 72 hrs by cell-titer Glo assay. Type of test: functional, cell-based.
The test system of test [6] is NB1. The test can be described thus: Antiproliferative activity against human NB-1 cells assessed as reduction in cell viability incubated for 72 hrs by cell-titer Glo assay. The test is classed as functional, cell-based. The conditions noted are these: NB1, 72 h.
Test [7] has as its system G55T2. The test can be described thus: Antiproliferative activity against human G55T2 cells assessed as reduction in cell viability incubated for 72 hrs by WST-8 assay. Type of test: functional, cell-based. The note with it: G55T2, 72 h.
Test [8] concerns G55T2. The test can be described thus: Cell cycle arrest in human G55T2 cells assessed as accumulation in G0/G1 phase at 1 uM incubated for 72 hrs by propidium iodide based flow cytometry (reference value: 49.9 %). Type of test: functional.
The test system of test [9] is G55T2. The test can be described thus: Cell cycle arrest in human G55T2 cells assessed as accumulation in S phase at 1 uM incubated for 72 hrs by propidium iodide based flow cytometry (reference value: 14.7 %). Type of test: functional.
Test [10] deals with G55T2. The test can be described thus: Cell cycle arrest in human G55T2 cells assessed as accumulation in G2/M phase at 1 uM incubated for 72 hrs by propidium iodide based flow cytometry (reference value: 26.8 %). Type of test: functional.
Test [11] concerns G55T2. As to the kind of experiment: Cell cycle arrest in human G55T2 cells assessed as accumulation in subG0 phase at 1 uM incubated for 72 hrs by propidium iodide based flow cytometry (reference value: 4.5 %). The test is classed as functional.
For test [12], the system named is G55T2. The test can be described thus: Cell cycle arrest in human G55T2 cells assessed as accumulation in G0/G1 phase at 3 uM incubated for 72 hrs by propidium iodide based flow cytometry (reference value: 49.9 %). Type of test: functional.
Test [13] deals with G55T2. As to the kind of experiment: Cell cycle arrest in human G55T2 cells assessed as accumulation in S phase at 3 uM incubated for 72 hrs by propidium iodide based flow cytometry (reference value: 14.7 %). Type of test: functional.
Test [14] concerns G55T2. The test can be described thus: Cell cycle arrest in human G55T2 cells assessed as accumulation in G2/M phase at 3 uM incubated for 72 hrs by propidium iodide based flow cytometry (reference value: 26.8 %). Type of test: functional.
The subject of test [15] is G55T2. The test can be described thus: Cell cycle arrest in human G55T2 cells assessed as accumulation in subG0 phase at 3 uM incubated for 72 hrs by propidium iodide based flow cytometry (reference value: 4.5 %). Type of test: functional.

Sequence of Histone deacetylase 1 (Q13547 whole entry): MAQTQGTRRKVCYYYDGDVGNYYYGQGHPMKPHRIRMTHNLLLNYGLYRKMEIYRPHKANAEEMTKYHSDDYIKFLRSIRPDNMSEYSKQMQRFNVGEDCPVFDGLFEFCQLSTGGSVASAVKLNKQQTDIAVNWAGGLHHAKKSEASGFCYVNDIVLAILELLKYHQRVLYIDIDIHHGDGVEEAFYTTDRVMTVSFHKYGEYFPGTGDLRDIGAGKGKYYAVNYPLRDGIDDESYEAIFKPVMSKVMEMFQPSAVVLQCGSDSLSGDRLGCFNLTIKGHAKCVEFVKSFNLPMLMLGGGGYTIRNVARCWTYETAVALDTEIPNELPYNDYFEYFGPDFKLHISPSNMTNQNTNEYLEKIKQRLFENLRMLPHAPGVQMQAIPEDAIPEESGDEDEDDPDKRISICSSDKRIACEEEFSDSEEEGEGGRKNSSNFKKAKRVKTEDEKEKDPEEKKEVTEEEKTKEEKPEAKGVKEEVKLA

For the molecule `O=C(NO)c1ccc(CC(=O)N(CCO)c2ccccc2)cc1`, the pIC50 in test [1] is 5.68.

For the molecule `Cc1ccc(NC(=O)CCN(Cc2ccc(C(=O)NO)cc2)C(=O)c2ccccc2)cc1`, the pIC50 is 7.56 in test [1]; 7.97 in test [2]; 5.94 in test [3]; 6.26 in test [4]; 6.21 in test [5]; 5.83 in test [6]. Further, the pIC50 in [7] is 6.27.

Consider `Cc1ccc(NC(=O)CCN(Cc2ccc(C(=O)NO)cc2)C(=O)c2cc(C)cc(C)c2)cc1`, for which the pIC50 in test [1] was 7.37; in test [2], 7.51; in test [3] it was 6.42; in test [4] it was 6.68; in test [5], 6.66; in test [6], 6.17. Moreover, the pIC50 in [7] is 6.43. Further, the Activity in test [8] is 52.3%; in test [9] it was 13.2%; in test [10] it was 29.1%; in [11], 3.5%; in test [12] it was 30.2%; in test [13], 9.8%. The results for the Activity in [14] and in test [15] were 31.1% and 23.3%, respectively.

In the case of `Cc1cc(C)cc(C(=O)N(CCC(=O)NCc2ccccc2)Cc2ccc(C(=O)NO)cc2)c1`, the pIC50 was 6.89 in test [1]; 7.69 in test [2]; 5.69 in [3]; 5.86 in [4]; 5.73 in [5]; 5.41 in test [6]. The pIC50 in test [7] was 5.37.

`CN(C)c1ccc(C(=O)N(CCC(=O)NCc2ccccc2)Cc2ccc(C(=O)NO)cc2)cc1`: the pIC50 in test [1] is 7.83; in [2] it was 7.83; in test [3] it was 5.94; in [4], 6.08; in [5], 5.85; in test [6] it was 5.76. Moreover, the pIC50 in test [7] was 5.94.

On to `Cc1ccc(NC(=O)CCN(Cc2ccc(C(=O)NO)cc2)C(=O)c2ccc(N(C)C)cc2)cc1`, for which the pIC50 in test [1] is 7.89; in test [2] it was 7.71; in test [3] it was 6.27; in test [4] it was 6.52; in test [5], 6.40; in test [6], 6.18. Besides, the pIC50 in test [7] is 6.48.

`Cc1ccc(C(=O)N(CCC(=O)NCc2ccccc2)Cc2ccc(C(=O)NO)cc2)cc1`: the pIC50 in [1] was 7.79; in [2], 7.78; in [3], 5.96; in test [4], 6.20; in [5], 6.04; in test [6], 5.79. For the same molecule, in [7], the pIC50 was 6.16.

On to `COc1ccc(C(=O)N(CCC(=O)NCc2ccccc2)Cc2ccc(C(=O)NO)cc2)cc1`, for which the negative logarithm of the IC50 (pIC50) in [1] was 7.38; in test [2], 7.60; in [3], 5.72; in test [4] it was 5.96; in test [5], 5.76; in test [6] it was 5.60. The pIC50 in test [7] was 5.46.

As to `COc1cc(OC)cc(C(=O)N(CCC(=O)NCc2ccccc2)Cc2ccc(C(=O)NO)cc2)c1`, the pIC50 was 6.83 in test [1]; 7.59 in test [2]; 4.91 in [3]; 5.22 in [4]; 5.02 in test [5]; 4.87 in test [6]. The pIC50 in [7] was 4.83.

As to `O=C(CCN(Cc1ccc(C(=O)NO)cc1)C(=O)c1ccccc1)NCc1ccccc1`, the pIC50 was 6.87 in test [1]; 7.90 in test [2]; 5.33 in test [3]; 5.63 in test [4]; 5.48 in [5]; 5.18 in [6]. Besides, in test [7], the pIC50 was 5.23.

Regarding `Cc1ccc(CNC(=O)CCN(Cc2ccc(C(=O)NO)cc2)C(=O)c2ccc(N(C)C)cc2)cc1`, the negative logarithm of the IC50 (pIC50) is 7.56 in test [1]; 7.84 in [2]; 6.38 in test [3]; 6.59 in [4]; 6.47 in test [5]; 6.15 in test [6]. In [7], the pIC50 is 6.37.

For the molecule `CN(C)c1ccc(C(=O)N(CCC(=O)NCc2ccc(Cl)cc2)Cc2ccc(C(=O)NO)cc2)cc1`, the pIC50 in [1] is 7.67; in test [2] it was 8.00; in test [3] it was 6.21; in test [4], 6.51; in [5], 6.41; in test [6], 6.07. Besides, the negative-log IC50 (pIC50) in test [7] was 6.34.

As to `O=C(CCCCCCC(=O)Nc1ccccc1)NO` [VORINOSTAT], the Activity amounted to 31.3% in [12], 8.1% in test [13], 28.9% in [14] and 24.8% in [15].
